Assay results: ChEMBL document CHEMBL1671694, “OXA-24 carbapenemase gene flanked by XerC/XerD-like recombination sites in different plasmids from different Acinetobacter species isolated during a nosocomial outbreak” (2010)
Values after ≈ are worked out from the molar mass of the structure shown.

Legend:
Acinetobacter baylyi [1] = assay: Antimicrobial activity against Acinetobacter baylyi ADP1 harboring pMMCU1 plasmid expressing bla-OXA-24 gene by microdilution method; type: functional
Acinetobacter baylyi [2] = assay: Antimicrobial activity against Acinetobacter baylyi ADP1 by microdilution method; type: functional

Structure (SMILES)	MIC (Acinetobacter baylyi [1]) [µg/mL]	MIC (Acinetobacter baylyi [2]) [µg/mL]
C[C@@H](O)[C@H]1C(=O)N2C(C(=O)O)=C(SCCNC=N)C[C@H]12 [IMIPENEM ANHYDROUS]	> 32	0.094 (≈ 0.314 µM)
C[C@@H](O)[C@H]1C(=O)N2C(C(=O)O)=C(S[C@@H]3CN[C@H](C(=O)N(C)C)C3)[C@H](C)[C@H]12 [MEROPENEM]	> 32	0.25 (≈ 0.652 µM)
